Data: PubChem BioAssay (NCI)
Several values for one entry are separate records, joined by “and”; a condition that tells them apart may be missing. Identical values can stand only once.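 Growth conditions: 96-well plates. Treatment: test compound, 48 hours, 5 concentrations. Analysis: linear interpolation between bracketing concentrations; unreached endpoints set to highest concentration. GI50 is the concentration that inhibits growth by half. TGI denotes the concentration required for complete inhibition of growth.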 *1 amine or outer side, *2 acyl side, *3 side chain or, on linkers, in order; H or OH if unused. Where a SMILES comes first, the peptide text is derived from it. Bridges are numbered along the chain shown (N, C = ends). Roman numbers before positions name the chains, in order. [ ]: non-standard residue; d: D form. Actinocin(9to1) = Cc1c2oc3c(C)ccc(C(=O)[*:1])c3nc-2c(C(=O)[*:2])c(N)c1=O; NMeV = CN[CH](C(=O)O)C(C)C; Sar = CNCC(=O)O

Key:
Experiment in all cases: growth of human tumour cells (NCI), 48 h
[1] = system: SK-MEL-5 melanoma
[2] = system: CCRF-CEM leukemia
[3] = system: MOLT-4 leukemia
[4] = system: OVCAR-4 ovarian
[5] = system: IGROV1 ovarian
[6] = system: OVCAR-8 ovarian
[7] = system: 786-0 renal
[8] = system: SF-268 CNS
[9] = system: PC-3 prostate
[10] = system: ACHN renal

| SMILES | GI50 [1] | TGI [1] | GI50 [2] | TGI [2] [µM] | GI50 [3] | TGI [3] [µM] | GI50 [4] [µM] | TGI [4] | GI50 [5] | TGI [5] | GI50 [6] | TGI [6] | GI50 [7] [µM] | TGI [7] | GI50 [8] | TGI [8] | GI50 [9] | TGI [9] | GI50 [10] [µM] | TGI [10] |
| --- | --- | --- | --- | --- | --- | --- | --- | --- | --- | --- | --- | --- | --- | --- | --- | --- | --- | --- | --- | --- |
| O=C1OCC(c2ccc(O)cc2)=C1c1cc(O)c(O)c(O)c1 | > 100 µM | > 100 µM | 51.7 µM | > 100 | > 100 µM | > 100 | > 100 | > 100 µM | > 100 µM | > 100 µM | > 100 µM | > 100 µM | 62.5 | > 100 µM | > 100 µM | > 100 µM | > 100 µM | > 100 µM | > 100 | > 100 µM |
| CC(=O)NNc1nc(C)c(C(/C=C/c2ccc([N+](=O)[O-])cc2)=N/NC(N)=O)s1 |  | > 100 µM |  | > 100 |  | > 100 |  | > 100 µM |  | > 100 µM |  | > 100 µM |  | > 100 µM |  | > 100 µM |  | > 100 µM |  | > 100 µM |
| CC(CN1CC(=O)NC(=O)C1)N1CC(=O)NC(=O)C1 (stereo unspecified) |  | > 750 µM |  | > 662 |  | > 750 |  | > 750 µM |  | > 725 µM |  | > 750 µM |  | > 750 µM |  | > 750 µM |  | > 750 µM |  | > 750 µM |
| CCOc1cc(C(=O)O)c2c(ccc3ccc(OC)c(OC)c32)c1OC |  | > 100 µM |  | > 100 |  | > 100 |  | > 100 µM |  | > 100 µM |  | > 100 µM |  | > 100 µM |  | > 100 µM |  | > 100 µM |  | > 100 µM |
| Cc1cc(C(=O)Nc2cc(Oc3ccc4nc(NC(=O)C5CC5)cn4n3)ccc2C)n(C)n1 | > 10 µM | > 10 µM | > 10 µM | > 10 | > 10 µM | > 10 | > 10 | > 10 µM | 5.06 µM | > 10 µM | > 10 µM | > 10 µM | > 10 | > 10 µM | > 10 µM | > 10 µM | > 10 µM | > 10 µM | > 10 | > 10 µM |
| O=C1NCN(c2ccccc2)C12CCN(CCCC(c1ccc(F)cc1)c1ccc(F)cc1)CC2 | 1.6 µM | 2.97 µM | 2.14 µM | 6.09 | 2.31 µM | 5.99 | 2.13 | 9.98 µM | 2.36 µM | 9.89 µM | 1.6 µM | 3.05 µM | 1.67 | 3.52 µM | 2.04 µM | 4.78 µM | 2.49 µM | 10.7 µM | 2.79 | 7.23 µM |
| COC1CC(C)C(OC)c2cc(O)cc(c2O)NC(=O)/C(C)=C/C=C\C(C)C(OC(N)=O)/C(C)=C\C(C)C1OC (stereo unspecified) | 0.691 µM and 0.599 µM | 18.1 µM and 5.29 µM | 0.0356 µM and 0.148 µM |  | 0.0437 µM and 0.0746 µM |  | 2.51 | 7.87 µM and 10.1 µM | 0.273 µM and 0.506 µM | 15.9 µM and 8 µM | 0.704 µM and 0.602 µM | 11.8 µM and 26.9 µM | 4.62 | 11.5 µM and 24.3 µM | 0.693 µM and 0.279 µM | 21.1 µM and 11 µM | 0.201 µM and 0.44 µM | 16.4 µM and 8.51 µM | 6.71 | 12.6 µM and 13.2 µM |
| Cc1c2oc3c(C)ccc(C(=O)OC(C)C4NC(=O)C(C(C)C)N(C)C(=O)CN(C)C(=O)C5CCCN5C(=O)C(C(C)C)NC4=O)c3nc-2c(C(=O)OC(C)C2NC(=O)C(C(C)C)N(C)C(=O)CN(C)C(=O)C3CCCN3C(=O)C(C(C)C)NC2=O)c(N)c1=O (stereo unspecified) (I: cyclo([Sar][NMeV]TVP) / II: cyclo([Sar][NMeV]TVP); linker I:3-II:3 via Actinocin(9to1); configuration not given here) | < 0.01 µM | 0.0169 µM | < 0.0111 µM | > 66.3 | < 0.01 µM |  | 0.014 | 2.03 µM | < 0.01 µM | 5.9 µM | < 0.01 µM |  | < 0.01 | > 100 µM | < 0.01 µM | 0.913 µM | < 0.01 µM | 19.7 µM | < 0.01 | 4.39 µM |
| COC(NC(N)=O)C(=O)O (stereo unspecified) |  | > 100 µM |  | > 100 |  | > 100 |  | > 100 µM |  | > 100 µM |  | > 100 µM |  | > 100 µM |  | > 100 µM |  | > 100 µM |  | > 100 µM |
| Oc1[nH]c(N=C2N=c3ccccc3=N2)c2ccccc12 | 8.57 µM | > 100 µM | 1.48 µM | 27.8 | 3.28 µM | 29.5 | 6.84 | 24 µM | 1.28 µM | 33.7 µM | 11.4 µM | 46.4 µM | 17.2 | 39.6 µM | 11.6 µM | 50.8 µM | 6.34 µM | 73.8 µM | 12.3 | 29 µM |
| COc1ccc(-c2nsc3c2NC(=O)CC3c2ccc3c(c2)OCCO3)cc1 (stereo unspecified) | 0.37 µM | 5.86 µM | 0.406 µM | > 100 | 0.622 µM | > 100 | 2.86 | > 100 µM | 1.6 µM | > 100 µM | 1.02 µM | > 100 µM | 0.829 | > 100 µM | 1.92 µM | > 100 µM | 0.528 µM | > 100 µM | 0.892 | > 100 µM |
| O=C1NC(O)c2ccccc2O1 (stereo unspecified) |  | > 100 µM |  | > 100 |  | > 100 |  | > 100 µM |  | > 100 µM |  | > 100 µM |  | > 100 µM |  | > 100 µM |  | > 100 µM |  | > 100 µM |
| C=C1C(=O)O[C@H]2[C@H]1CC/C(Cn1cc(Cc3c[nH]c4ccccc34)nn1)=C\CC[C@@]1(C)O[C@@H]21 | 1.89 µM | 3.61 µM | 0.718 µM | 5.92 | 2.29 µM | 6.04 | 2.05 | 5.61 µM | 1.92 µM | 3.84 µM | 3.44 µM | 10.7 µM | 1.77 | 3.48 µM | 1.7 µM | 3.27 µM | 1.88 µM | 3.81 µM | 1.47 | 2.8 µM |
| COc1cc(-c2nn(-c3cccc(NC(=O)NCCNS(=O)(=O)c4ccc(Cl)cc4)c3)cc2-c2ccncc2)ccc1Cl | 0.493 µM | 1.83 µM | 0.419 µM | > 100 | 1.03 µM | > 100 | 1.03 | 92 µM | 1.18 µM | > 100 µM | 1.71 µM | 8.48 µM | 1.5 | 5.78 µM | 0.792 µM | 4.39 µM | 0.49 µM | 9.55 µM | 2.69 | 11.8 µM |
